What was measured:
[1] = test system: bedstraw; experiment: Test B pre/postemergence bedstraw; format: in vivo, Galium aparine
Method in brief: (§1)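 Response is a visual 0-to-10 score relative to untreated plants, where 0 means no effect and 10 means complete control, taken twelve to sixteen days after application. Treatments went onto soil at planting and onto foliage of 1- to 4-leaf plants, using a surfactant-containing non-phytotoxic solvent.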

[2] = test system: blackgrass; experiment: Test B pre/postemergence blackgrass; format: in vivo, Alopecurus myosuroides
Method in brief: as §1

[3] = test system: surinam grass; experiment: Test B pre/postemergence surinam grass; format: in vivo, Brachiaria decumbens
Method in brief: as §1

[4] = test system: cocklebur; experiment: Test B pre/postemergence cocklebur; format: in vivo, Xanthium strumarium
Method in brief: as §1

[5] = test system: corn; experiment: Test B pre/postemergence corn; format: in vivo, Zea mays
Method in brief: as §1

[6] = test system: crabgrass; experiment: Test B pre/postemergence crabgrass; format: in vivo, Digitaria sanguinalis
Method in brief: as §1

[7] = test system: giant foxtail; experiment: Test B pre/postemergence giant foxtail; format: in vivo, Setaria faberii
Method in brief: as §1

[8] = test system: morningglory; experiment: Test B pre/postemergence morningglory; format: in vivo, Ipomoea hederacea
Method in brief: as §1

[9] = test system: pigweed; experiment: Test B pre/postemergence pigweed; format: in vivo, Amaranthus retroflexus
Method in brief: as §1

[10] = test system: rape; experiment: Test B pre/postemergence rape; format: in vivo, Brassica napus
Method in brief: as §1

[11] = test system: soybean; experiment: Test B pre/postemergence soybean; format: in vivo, Glycine max
Method in brief: as §1

[12] = test system: sugar beet; experiment: Test B pre/postemergence sugar beet; format: in vivo, Beta vulgaris
Method in brief: as §1

[13] = test system: velvetleaf; experiment: Test B pre/postemergence velvetleaf; format: in vivo, Abutilon theophrasti
Method in brief: as §1

[14] = test system: wheat; experiment: Test B pre/postemergence wheat; format: in vivo, Triticum aestivum
Method in brief: as §1

[15] = test system: wild oat; experiment: Test B pre/postemergence wild oat; format: in vivo, Avena fatua
Method in brief: as §1

[16] = test system: purple nutsedge; experiment: Test B pre/postemergence purple nutsedge; format: in vivo, Cyperus rotundus
Method in brief: as §1

[17] = Postemergence, Rate 125 g/ha, scale of 0 to 10 where 0 is no effect and 10 is complete control
[18] = Preemergence, Rate 62 g/ha, scale 0 to 10 (0 no effect, 10 complete control)
[19] = Preemergence, Rate 125 g/ha, 0 is no effect, 10 is complete control
[20] = Preemergence, Rate 250 g/ha, scale 0 to 10, 0 is no effect, 10 is complete control
[21] = Preemergence, Rate 500 g/ha, scale 0 to 10 (0 no effect, 10 complete control)
[22] = Rate 62 g/ha, Postemergence, scale of 0 to 10 where 0 is no effect and 10 is complete control
[23] = Rate 250 g/ha, Postemergence, scale 0 to 10, 0 is no effect, 10 is complete control
[24] = Rate 500 g/ha, Postemergence, scale 0 to 10

CC(C)N(C(=O)n1oc(=O)n(C(C)c2ccccc2)c1=O)c1ccc(Cl)cc1 (centres unmarked) [Compound 133]
Bedstraw plant response rating [1, 17]: 4 | Bedstraw plant response rating [1, 18]: 0 | Bedstraw plant response rating (0 to 10 scale) [1, 19]: 0 | Bedstraw plant response rating [1, 20]: 0 | Bedstraw plant response rating [1, 21]: 0 | Bedstraw plant response rating [1, 22]: 0 | Plant response rating, Bedstraw [1, 23]: 7 | Bedstraw plant response rating ([1]; Rate 500 g/ha, Postemergence, scale 0 to 10, 0 no effect, 10 complete control): 7 | Blackgrass plant response rating [2, 17]: 2 | Blackgrass plant response rating [2, 18]: 3 | Blackgrass plant response rating (0 to 10 scale) [2, 19]: 3 | Blackgrass plant response rating [2, 20]: 3 | Blackgrass plant response rating [2, 21]: 5 | Blackgrass plant response rating [2, 22]: 0 | Plant response rating, Blackgrass [2, 23]: 2 | Blackgrass plant response rating [2, 24]: 4 | B. signalgrass plant response rating [3, 17]: 0 | B. signalgrass plant response rating [3, 18]: 0 | B. signalgrass plant response rating (0 to 10 scale) [3, 19]: 5 | B. signalgrass plant response rating [3, 20]: 5 | B. signalgrass plant response rating [3, 21]: 7 | B. signalgrass plant response rating [3, 22]: 0 | Plant response rating, B. signalgrass [3, 23]: 2 | B. signalgrass plant response rating ([3]; Rate 500 g/ha, Postemergence, scale of 0 to 10 where 0 is no effect and 10 is complete control): 2 | Cocklebur plant response rating [4, 17]: 2 | Cocklebur plant response rating [4, 18]: 0 | Cocklebur plant response rating (0 to 10 scale) [4, 19]: 0 | Cocklebur plant response rating [4, 20]: 0 | Cocklebur plant response rating [4, 21]: 2 | Cocklebur plant response rating [4, 22]: 2 | Plant response rating, Cocklebur [4, 23]: 2 | Cocklebur plant response rating [4, 24]: 3 | Corn plant response rating [5, 17]: 0 | Corn plant response rating [5, 18]: 0 | Corn plant response rating (0 to 10 scale) [5, 19]: 0 | Corn plant response rating [5, 20]: 0 | Corn plant response rating [5, 21]: 0 | Corn plant response rating [5, 22]: 0 | Plant response rating, Corn [5, 23]: 0 | Corn plant response rating [5, 24]: 0 | Crabgrass plant response rating [6, 17]: 2 | Crabgrass plant response rating [6, 18]: 1 | Crabgrass plant response rating (0 to 10 scale) [6, 19]: 3 | Crabgrass plant response rating [6, 20]: 5 | Crabgrass plant response rating [6, 21]: 5 | Crabgrass plant response rating [6, 22]: 0 | Plant response rating, Crabgrass [6, 23]: 4 | Crabgrass plant response rating [6, 24]: 4 | Giant foxtail plant response rating [7, 17]: 2 | Giant foxtail plant response rating [7, 18]: 3 | Giant foxtail plant response rating (0 to 10 scale) [7, 19]: 7 | Giant foxtail plant response rating [7, 20]: 9 | Giant foxtail plant response rating [7, 21]: 10 | Giant foxtail plant response rating [7, 22]: 0 | Plant response rating, Giant foxtail [7, 23]: 3 | Giant foxtail plant response rating [7, 24]: 4 | Morningglory plant response rating [8, 17]: 3 | Morningglory plant response rating [8, 18]: 0 | Morningglory plant response rating (0 to 10 scale) [8, 19]: 0 | Morningglory plant response rating [8, 20]: 0 | Morningglory plant response rating [8, 21]: 0 | Morningglory plant response rating [8, 22]: 2 | Plant response rating, Morningglory [8, 23]: 4 | Morningglory plant response rating [8, 24]: 8 | Redroot pigweed plant response rating [9, 17]: 0 | Redroot pigweed plant response rating [9, 18]: 0 | Redroot pigweed plant response rating (0 to 10 scale) [9, 19]: 0 | Redroot pigweed plant response rating [9, 20]: 0 | Redroot pigweed plant response rating [9, 21]: 3 | Redroot pigweed plant response rating [9, 22]: 0 | Plant response rating, Redroot pigweed [9, 23]: 0 | Redroot pigweed plant response rating [9, 24]: 2 | Rape plant response rating [10, 17]: 0 | Rape plant response rating [10, 18]: 0 | Rape plant response rating (0 to 10 scale) [10, 19]: 0 | Rape plant response rating [10, 20]: 0 | Rape plant response rating [10, 21]: 2 | Rape plant response rating [10, 22]: 0 | Plant response rating, Rape [10, 23]: 0 | Rape plant response rating [10, 24]: 0 | Soybean plant response rating [11, 17]: 3 | Soybean plant response rating [11, 18]: 0 | Soybean plant response rating (0 to 10 scale) [11, 19]: 0 | Soybean plant response rating [11, 20]: 0 | Soybean plant response rating [11, 21]: 0 | Soybean plant response rating [11, 22]: 1 | Plant response rating, Soybean [11, 23]: 3 | Soybean plant response rating [11, 24]: 3 | Sugarbeets plant response rating [12, 17]: 0 | Sugarbeets plant response rating [12, 18]: 0 | Sugarbeets plant response rating (0 to 10 scale) [12, 19]: 2 | Sugarbeets plant response rating [12, 20]: 3 | Sugarbeets plant response rating [12, 21]: 5 | Sugarbeets plant response rating [12, 22]: 0 | Plant response rating, Sugarbeets [12, 23]: 0 | Sugarbeets plant response rating [12, 24]: 2 | Velvetleaf plant response rating [13, 17]: 0 | Velvetleaf plant response rating [13, 18]: 0 | Velvetleaf plant response rating (0 to 10 scale) [13, 19]: 0 | Velvetleaf plant response rating [13, 20]: 2 | Velvetleaf plant response rating [13, 21]: 2 | Velvetleaf plant response rating [13, 22]: 0 | Plant response rating, Velvetleaf [13, 23]: 2 | Velvetleaf plant response rating [13, 24]: 5 | Wheat plant response rating [14, 17]: 0 | Wheat plant response rating [14, 18]: 0 | Wheat plant response rating (0 to 10 scale) [14, 19]: 0 | Wheat plant response rating [14, 20]: 0 | Wheat plant response rating [14, 21]: 0 | Wheat plant response rating [14, 22]: 0 | Plant response rating, Wheat [14, 23]: 0 | Wheat plant response rating [14, 24]: 2 | Wild oats plant response rating [15, 17]: 0 | Wild oats plant response rating [15, 18]: 0 | Wild oats plant response rating (0 to 10 scale) [15, 19]: 2 | Wild oats plant response rating [15, 20]: 2 | Wild oats plant response rating [15, 21]: 4 | Wild oats plant response rating [15, 22]: 0 | Plant response rating, Wild oats [15, 23]: 0 | Wild oats plant response rating [15, 24]: 0 | Nutsedge plant response rating [16, 17]: 0 | Nutsedge plant response rating [16, 18]: 0 | Nutsedge plant response rating (0 to 10 scale) [16, 19]: 0 | Nutsedge plant response rating [16, 20]: 0 | Nutsedge plant response rating [16, 21]: 0 | Nutsedge plant response rating [16, 22]: 0 | Plant response rating, Nutsedge [16, 23]: 0 | Nutsedge plant response rating [16, 24]: 0

— patent US6737383B1, “Herbicidal oxadiazolidines” (priority 1999, dated 2004)
